# Values quoted from earlier work, collected in US8067542B1 (priority 2003, dated 2011).
# Tested on: Verticillium dahliae
# Conditions: AlfAFP expressed in potato (Gao et al, 2000); cited from earlier work
substance,measurement,value
"Alf - wt: native alfalfa antifungal protein (plant defensin from Medicago sativa seeds), SEQ ID NO:2 (RTCENLADKYRGPCFSGCDTHCTTKENAVSGRCRDDFRCWCTKRC; listed as Medicago sativa)",resistance to early dying disease in potato,confer resistance to early dying disease
